Test results: patent publication US12054478B2, “Compositions and methods for inhibiting phenyl triazole MLL1-WDR5 protein-protein interaction” (China Pharmaceutical University, priority 2018, dated 2024)
Values after ≈ are worked out from the molar mass of the structure shown. Like-named read-outs stand apart in the source and are kept apart here.

Assays:
female balb/c mice = settings: 80 mg/kg intraperitoneal, 10 consecutive days
Description: In the meantime, subacute toxicity experiments were conducted to evaluate the safety of some of the compounds in the present disclosure in mouse.

[1] = system: MV4-11 human acute leukemia monocyte; experiment: Anti-proliferation on leukemia cells, MV4-11; type: cell-based; settings: Homo sapiens, MV4-11; MV-411 cells
Description: (§1) Anti-proliferation experiments were conducted with leukemia cells with some of the compounds in the present disclosure.

[2] = system: K562 human chronic myeloid leukemia cells; experiment: Anti-proliferation on leukemia cells, K562; type: cell-based
Description: Anti-proliferation experiments were conducted with leukemia cells with some of the compounds in the present disclosure. Table 3 listed the results of evaluation of the anti-proliferation activities for some of the compounds from this present disclosure conducted with acute leukemia cells, wherein MV4-11 is human acute leukemia monocyte, Molm-13 is human acute myeloid leukemia cells, and K562 is human chronic myeloid leukemia cells.

[3] = system: Molm-13 human acute myeloid leukemia cells; experiment: Anti-proliferation on leukemia cells, Molm-13; type: cell-based; settings: Homo sapiens; Molm-13 cells
Description: as §1

[4] = biological target: MLL1-WDR5 protein-protein interactions (Homo sapiens, UniProt P61964); experiment: Inhibition of MLL1-WDR5 protein-protein interaction; type: binding
Solubility at pH 7.4 = type: physicochemical; settings: aqueous medium at pH 7.4 (water solubility), aqueous buffer
[5] = Table 1, read-out: MLL1-WDR5 PPI inhibition activity
[6] = Table 2, compounds of this present disclosure
[7] = Table 2, compounds of this present disclosure, read-out: MLL1-WDR5 PP1 inhibition activity
[8] = Table 2, biphenyl comparison compounds
[9] = Table 2, biphenyl comparison compounds (Eur. J. Med. Chem. 2016, 124, 480-489), read-out: MLL1-WDR5 PP1 inhibition activity

## Cc1c(F)c(N)cc(C(=O)Nc2cc(-c3ccc(NC(=O)C(N)C(C)C)cc3)ccc2N2CCN(C)CC2)c1Cl (stereo not drawn) [DDO-2113, reference compound]
Female balb/c mice
  Mouse survival: all mice died after dosing for 5 days

## Cc1c(F)c(N)cc(C(=O)Nc2cc(-c3ccc(NC(=O)CCCN)cc3)ccc2N2CCN(C)CC2)c1Cl [DDO-2117, reference compound]
Female balb/c mice
  Average body weight changes: apparent body weight decrease

## Cc1c(F)c(N)cc(C(=O)Nc2cc(-n3cc(C(=O)N(C)C)nn3)ccc2N2CCN(C)CC2)c1Cl [Example 3, 1-(3-(5-Amino-2-chloro-4-fluoro-3-methylbenzoylamino)-4-(4-methylpiperazin-1-group)phenyl)-N, N-dimethyl-1H-1,2,3 triazole-4-carboxamide]
[1]
  GI50: 44.6 ± 1.3 µM
[2]
  GI50: > 100 µM
[3]
  GI50: 22.8 ± 5.5 µM

## Cc1c(F)c(N)cc(C(=O)Nc2cc(-n3cc(C(=O)NC4CCOCC4)nn3)ccc2N2CCN(C)CC2)c1Cl [Example 5, 1-(3-(5-Amino-2-chloro-4-fluoro-3-methylbenzoylamino)-4-(4-methylpiperazin-1-group)phenyl)-N-(tetrahydro-2H-pyran-4-yl)-1H-1,2,3-triazole-4-carboxamide]
[2]
  GI50: 27.5 ± 2.8 µM

## Cc1c(F)c(N)cc(C(=O)Nc2cc(-n3cc(C(=O)NC4CCN(C)CC4)nn3)ccc2N2CCN(C)CC2)c1Cl [Example 6, 1-(3-(5-Amino-2-chloro-4-fluoro-3-methylbenzoylamino)-4-(4-methylpiperazin-1-group)phenyl)-N-(1-methylpiperidin-4-group)-1H-1,2,3-triazole-4-carboxamide]
[2]
  GI50: 10.4 ± 0.7 µM
Female balb/c mice
  Average body weight changes: slight body weight increase

## Cc1c(F)c(N)cc(C(=O)Nc2cc(-n3cc(C(=O)N4CCN(C)CC4)nn3)ccc2N2CCN(C)CC2)c1Cl [Example 8, 5-amino-2-chloro-4-fluoro-3-ethyl-N-(2-(4-methylpiperazin-1-group)-5-(4-(methylpiperazin-1-Carbonyl)-1H-1,-1H-1,2,3-triazole-1-group) Phenyl)-carboxamide]
[2]
  GI50: 34.1 ± 1.2 µM

## Cc1c(F)c(N)cc(C(=O)Nc2cc(-n3cc(C(=O)NCCN4CCOCC4)nn3)ccc2N2CCN(C)CC2)c1Cl [Example 9]
[2]
  GI50: 35.8 ± 2.7 µM

## Cc1c(F)c(N)cc(C(=O)Nc2cc(-n3cc(C(=O)NCCCN)nn3)ccc2N2CCN(C)CC2)c1Cl [Example 10]
[1]
  GI50: 13.5 ± 1.2 µM
[4]; [5]
  IC50: < 0.01 µM
[2]
  GI50: 13.5 ± 1.2 µM
[3]
  GI50: 13.5 ± 1.2 µM

## Cc1c(F)c(N)cc(C(=O)Nc2cc(-n3ccnn3)ccc2N2CCN(C)CC2)c1Cl [Example 11, 5-amino-2-chloro-4-fluoro-3-methyl-N-(2-(4-methylpiperazin-1-group)-5-(1H-1,2,3-triazole-1-group)phenyl) benzamide]
[1]
  GI50: 13.5 ± 1.5 µM
[2]
  GI50: 13.5 ± 1.5 µM
[3]
  GI50: 13.5 ± 1.5 µM

## Cc1c(F)c(N)cc(C(=O)Nc2cc(-n3cc(NC(=O)OC(C)(C)C)nn3)ccc2N2CCN(C)CC2)c1Cl [Example 12]
[1]
  GI50: 23.2 ± 3.2 µM
[4]; [5]
  IC50: < 0.08 µM

## Cc1c(F)c(N)cc(C(=O)Nc2cc(-n3cc(N)nn3)ccc2N2CCN(C)CC2)c1Cl [Example 13, 5-amino-N-(5-(4-amino-1H-1,2,3-triazole-1-group)-2-(4-methylpiperazin-1-group)phenyl)-2-chloro-4-fluoro-3-Methylbenzamide]
[1]
  GI50: 10.1 ± 1.3 µM
[4]; [5]
  IC50: < 0.08 µM
[2]
  GI50: 10.5 ± 2 µM
[3]
  GI50: 9.2 ± 1.4 µM

## Cc1c(F)c(N)cc(C(=O)Nc2cc(-n3cc(NC(=O)C4CCN(C)CC4)nn3)ccc2N2CCN(C)CC2)c1Cl [Example 14]
[1]
  GI50: 9.5 ± 1 µM
[4]; [5]
  IC50: < 0.01 µM
[2]
  GI50: 14.1 ± 1.3 µM
[3]
  GI50: 11 ± 2 µM

## Cc1c(F)c(N)cc(C(=O)Nc2cc(-n3cc(NC(=O)C4CCNCC4)nn3)ccc2N2CCN(C)CC2)c1Cl [Example 15, N-(1-(3-(5-amino-2-chloro-4-fluoro-3-Methylbenzoylamino)-4-(4-methylpiperazingroup)phenyl)-1H-1,2,3-Triazopyridine-4-group) Piperidine-4-formamide]
[1]
  GI50: 14.3 ± 1.7 µM
[4]; [5]
  IC50: < 0.01 µM
[2]
  GI50: 12.9 ± 0.2 µM
[3]
  GI50: 18.5 ± 1.9 µM

## Cc1c(F)c(N)cc(C(=O)Nc2cc(-n3cc(NC(=O)CCO)nn3)ccc2N2CCN(C)CC2)c1Cl [Example 17, 5-amino-2-chloro-4-fluoro-N-(5-(4-(3-Hydroxypropionylamino)-1H-1,2,3-triazol-1-group)-2-(4-methylpiperazin-1-group)phenyl)-3-methyl benzoylamino]
[1]
  GI50: 10.4 ± 1.1 µM
[4]; [5]
  IC50: < 0.05 µM
[2]
  GI50: 21.3 ± 2.4 µM
[3]
  GI50: 7.3 ± 0.8 µM

## Cc1c(F)c(N)cc(C(=O)Nc2cc(-n3cc(CCN(C)C)nn3)ccc2N2CCN(C)CC2)c1Cl [Example 19, 5-amino-2-chloro-N-(5-(4-(2-(Dimethylamino)ethyl)-1H-1,2,3-triazol-1-group)-2-(4-methylpiperazin-1-groupgroup)phenyl)-4-fluoro-3-Methyl benzoyl]
[1]
  GI50: 13.7 ± 1.4 µM
[4]; [5]
  IC50: < 0.05 µM
[2]
  GI50: 13.5 ± 1.2 µM
[3]
  GI50: 16.8 ± 2 µM

## CCOc1cn(-c2ccc(N3CCN(C)CC3)c(NC(=O)c3cc(N)c(F)c(C)c3Cl)c2F)nn1 [Example 20]
[1]
  GI50: 8.6 ± 0.6 µM
[2]
  GI50: 10.5 ± 2 µM
[3]
  GI50: 10.1 ± 1.3 µM

## Cc1c(F)c(O)cc(C(=O)Nc2c(N3CCN(C)CC3)ccc(-n3cc(NCC(N)=O)nn3)c2F)c1Cl [Example 21, N-(3-(4-((2-amino-2-Oxoethyl)amino)-1H-1,2,3-triazol-1-group)-2-fluoro-6-(4-methylpiperazin-1-group)phenyl)-2-chloro-4-fluoro-5-hydroxyl-3-Methyl benzoyl]
[1]
  GI50: 12.7 ± 0.8 µM
[4]; [5]
  IC50: < 0.08 µM
[2]
  GI50: 10.5 ± 0.8 µM
[3]
  GI50: 7.7 ± 0.9 µM

## Cc1c(F)c(O)cc(C(=O)Nc2c(N3CCN(C)CC3)ccc(-n3cc(NC(=O)CCN)nn3)c2C)c1Cl [Example 23]
[4]; [5]
  IC50: < 0.05 µM
[2]
  GI50: 27.7 ± 0.3 µM
[3]
  GI50: 17.9 ± 1.6 µM

## Cc1c(F)c(N)cc(C(=O)Nc2cc(-n3cc(C(=O)NCCN4CCOCC4)nn3)ccc2N2CCCN(C)CC2)c1Cl [Example 24, 1-(3-(5-amino-2-chloro-4-fluoro-3-Methylbenzoylamino)-4-(4-methyl-1,4-Diazepane-1-group)phenyl)-N-(2-Morpholineethyl)-1H-1,2,3-triazol-4-formamide]
[1]
  GI50: 11.3 ± 0.7 µM
[4]; [5]
  IC50: < 0.05 µM
[2]
  GI50: 13.5 ± 2.2 µM
[3]
  GI50: 12.9 ± 0.9 µM

## Cc1c(F)c(N)cc(C(=O)Nc2cc(-n3cc(C(=O)NCCN4CCOCC4)nn3)ccc2N2CCN(C)C(C)C2)c1Cl (stereo not drawn) [Example 25]
[1]
  GI50: 10.9 ± 0.9 µM
[4]; [5]
  IC50: < 0.05 µM
[2]
  GI50: 11.3 ± 0.7 µM
[3]
  GI50: 8.5 ± 0.7 µM

## COC(=O)c1cn(-c2ccc(N3CCN(C)CC3)c(NC(=O)c3cc(N)c(F)c(C)c3Cl)c2)nn1 [drawing 6]
Solubility at pH 7.4; [6]
  solubility: 20 µg/mL (≈ 39.8 µM)

## Cc1c(F)c(N)cc(C(=O)Nc2cc(-n3cc(C(=O)N(C)C)nn3)ccc2N2CCN(C)CC2)c1Cl [drawing 8]
Solubility at pH 7.4; [6]
  solubility: 170 µg/mL (≈ 330 µM)

## Cc1c(F)c(N)cc(C(=O)Nc2cc(-n3cc(C(=O)N4CCOCC4)nn3)ccc2N2CCN(C)CC2)c1Cl [drawing 10]
Solubility at pH 7.4; [6]
  solubility: 200 µg/mL (≈ 359 µM)

## Cc1c(F)c(N)cc(C(=O)Nc2cc(-n3ccnn3)ccc2N2CCN(C)CC2)c1Cl [drawing 12]
Solubility at pH 7.4; [6]
  solubility: 30 µg/mL (≈ 67.6 µM)
[4]; [7]
  IC50: 0.0657 µM

## Cc1c(F)c(N)cc(C(=O)Nc2cc(-n3cc(N)nn3)ccc2N2CCN(C)CC2)c1Cl [drawing 14]
Solubility at pH 7.4; [6]
  solubility: 110 µg/mL (≈ 240 µM)
[4]; [7]
  IC50: 0.0903 µM

## Cc1c(F)c(N)cc(C(=O)Nc2cc(-c3ccc(N)cc3)ccc2N2CCN(C)CC2)c1Cl [drawing 15, reference compound]
Solubility at pH 7.4; [8]
  solubility: 9.5 µg/mL (≈ 20.3 µM)
[4]; [9]
  IC50: 0.0887 µM

## Cc1c(F)c(N)cc(C(=O)Nc2cc(-n3cc(NC(=O)C4CCN(C)CC4)nn3)ccc2N2CCN(C)CC2)c1Cl [drawing 16]
Solubility at pH 7.4; [6]
  solubility: 630 µg/mL (≈ 1080 µM)
[4]; [7]
  IC50: 0.006 µM

## Cc1c(F)c(N)cc(C(=O)Nc2cc(-n3cc(NC(=O)C4CCNCC4)nn3)ccc2N2CCN(C)CC2)c1Cl [drawing 18]
Solubility at pH 7.4; [6]
  solubility: 1240 µg/mL (≈ 2170 µM)
[4]; [7]
  IC50: 0.0123 µM

## Cc1c(F)c(N)cc(C(=O)Nc2cc(-n3cc(NC(=O)CCCN)nn3)ccc2N2CCN(C)CC2)c1Cl [drawing 20]
Solubility at pH 7.4; [6]
  solubility: 1300 µg/mL (≈ 2400 µM)
[4]; [7]
  IC50: 0.0067 µM

## Cc1c(F)c(N)cc(C(=O)Nc2cc(-c3ccc(NC(=O)CCCN)cc3)ccc2N2CCN(C)CC2)c1Cl [drawing 21, reference compound]
Solubility at pH 7.4; [8]
  solubility: 110 µg/mL (≈ 199 µM)

## COC(=O)c1ccc(-c2ccc(N3CCN(C)CC3)c(NC(=O)c3cc(N)c(F)c(C)c3Cl)c2)cc1 [reference compound]
Solubility at pH 7.4; [8]
  solubility: 1.9 µg/mL (≈ 3.72 µM)

## Cc1c(F)c(N)cc(C(=O)Nc2cc(-c3ccc(C(=O)N(C)C)cc3)ccc2N2CCN(C)CC2)c1Cl [reference compound]
Solubility at pH 7.4; [8]
  solubility: 21 µg/mL (≈ 40.1 µM)

## Cc1c(F)c(N)cc(C(=O)Nc2cc(-c3ccc(C(=O)N4CCOCC4)cc3)ccc2N2CCN(C)CC2)c1Cl [reference compound]
Solubility at pH 7.4; [8]
  solubility: 27 µg/mL (≈ 47.7 µM)

## Cc1c(F)c(N)cc(C(=O)Nc2cc(-c3ccccc3)ccc2N2CCN(C)CC2)c1Cl [reference compound]
Solubility at pH 7.4; [8]
  solubility: 3.1 µg/mL (≈ 6.84 µM)
[4]; [9]
  IC50: 0.0479 µM

## Cc1c(F)c(N)cc(C(=O)Nc2cc(-c3ccc(NC(=O)C4CCN(C)CC4)cc3)ccc2N2CCN(C)CC2)c1Cl [reference compound]
Solubility at pH 7.4; [8]
  solubility: 54 µg/mL (≈ 91 µM)

## Cc1c(F)c(N)cc(C(=O)Nc2cc(-c3ccc(NC(=O)C4CCNCC4)cc3)ccc2N2CCN(C)CC2)c1Cl [reference compound]
Solubility at pH 7.4; [8]
  solubility: 125 µg/mL (≈ 216 µM)
[4]; [9]
  IC50: 0.0085 µM
